# Assays:
# [1] = tested on: dallisgrass (Paspalum dilatatum); test: Dallisgrass control in bermudagrass; assay type: in vivo; settings: two applications, 28 days after the first application
# Source text: Applications initiated on Oct. 1, 2014.
# initiated in AL for dallisgrass control in bermudagrass on Oct. 28, 2013. Two applications were applied. Percent dallisgrass control was taken 28 days after the first application.
# [2] = tested on: tropical signalgrass (Urochloa subquadripara); test: Tropical signalgrass control in Bermudagrass plots; assay type: in vivo; settings: 28 days after application
# Source text: Applications of pinoxaden, and pinoxaden plus cloquintocet were applied to various Bermudagrass plots with tropical […] present between August 11 and August 13. The plots were again evaluated 28 days following the application. The following percent weed controls were observed.
structure (smiles),measurement,setting,value
"CCc1cc(C)cc(CC)c1-c1c(OC(=O)C(C)(C)C)n2n(c1=O)CCOCC2 [Pinoxaden, 8-(2,6-Diethyl-4-methylphenyl)-7-oxo-1,2,4,5-tetrahydro-7H-pyrazolo[1,2-d][1,4,5]oxadiazepin-9-yl-2,2-dimethylpropanoat]",% Control (28 Days AIA),[1]; 45 g active/ha,82%
same,% Control (28 Days AIA),[1]; 90 g active/ha,85%
same,% Control (28 Days AIA),[2]; 70 g active/ha,79.5%
same,% Control (28 Days AIA),[2]; 140 g active/ha,89.7%

# Source: patent US12004511B2, “Method of controlling weeds in warm season turfgrass” (SYNGENTA PARTICIPATIONS AG, priority 2017, dated 2024)
